# Test results from US20240165180A1, “Processes for Extracting Muscimol from Amanita Muscaria” (priority 2021, published 2024).
# Test: Heat exposure of muscimol during distillation
# Assay type: physicochemical
# Details: after being exposed to heat for 3 hours (distillation)
# Procedure: In one example, distillation is performed for about 0.5 hours to about 6 hours. In some embodiments, distillation is performed for about 5 to about 6 hours. In another example, it is performed for about 2 to about 3 hours. In another example, it is performed for about 3 hours. […] However, in some embodiments, further distillation beyond 3 hours, such as 4 hours, 5 hours, 6 hours, or more than 6 hours, may be advantageous. In some embodiments, the resulting muscimol extract is a liquid.
# The refluxed extract was then distilled for a period of 3 hours. Samples were taken prior to distillation, after 1 hour, 2 hours, and at 3 hours of distillation, as discussed further below. After distillation, the filtrate was cooled to 3° C. in a refrigerator. After about 3 hours of cooling, there was coagulated material suspended in the filtrate. The coagulated material in the filtrate was removed via vacuum filtration through the vacuum filtration setup described above (without the cheesecloth). After filtration, the filter setup was rinsed under vacuum with 30 mL of distilled water into the filtrate.
smiles,measurement,value
"NCc1cc(=O)[nH]o1 [muscimol, 5-(Aminomethyl)-1,2-oxazol-3(2H)-one]",stability to heat,begins degrading (to a very minimal degree)
